# Test results reported in patent US20190142810A1, “MITOCHONDRIAL INHIBITORS FOR THE TREATMENT OF PROLIFERATION DISORDERS” (Basilea Pharmaceutica International AG, priority 2016, published 2019).
# Legend:
# [1] = tested on: Oxygen consumption (mitochondrial function); test: Oxygen consumption assay (MitoXpress probe); format: cell-based; details: 5 h, MitoXpress probe signal, kinetic analysis at 37° C. for 5 hours, compared to untreated cells
# Description: Oxygen consumption is one of the most informative and direct measures of mitochondrial function and can be measured, for example, by using the MitoXpress® assay (Luxcel MX-2001, Luxcel Biosciences). The MitoXpress® probe is one of a family of phosphorescent oxygen sensitive probes. The assay exploits the ability of oxygen to quench the excited state of the MitoXpress® probe. As the test material respires (i.e. the cells), oxygen is depleted in the surrounding solution/environment, which increases the probe phosphorescence signal. Changes in oxygen consumption reflecting changes in mitochondrial activity are seen as changes in the MitoXpress® probe signal over time.
# Cells were seeded in 96 well black plates with transparent bottoms (Greiner Bio-One cat. no. 655090) at a density of 50′000 cells/well in a final volume of 100 μL. After 24 hours the incubation media was removed and 150 μL of fresh media containing inhibitors at different concentrations was added to each well. Then, 10 μL of MitoXpress® and 150 μL mineral oil were added per well. Reading from the top of the plate, kinetic analysis was performed at 37° C. for 5 hours using a Synergy 4 plate reader (BioTek) and Time-resolved Fluoresence (TRF) wavelengths of 380/11 nm excitation and 650/20 nm emission or 665/40 emission (30 microsecond delay time, 100 microsecond integration time, gain or sensitivity settings set at either medium or high). IC50s were calculated as the concentration that inhibits 50% of the phosphorescent oxygen sensitive probe signal (MitoXpress®) as compared to untreated cells.
# HeLa galactose cells = test: Cell growth and proliferation assay of HeLa galactose cells (crystal violet); format: cell-based; details: Homo sapiens, HeLa, 72 h, 72 hours incubation, crystal violet staining, absorbance at 590 nm
# Outline: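 HeLa cells adapted stepwise over three weeks to glucose-free galactose medium plus 10 mM galactose, seeded at 2000 cells/well and treated 72 h with compounds (0.001% DMSO) at 37° C. Growth read by crystal violet staining, dye solubilized and absorbance at 590 nm; IC50 from concentration-response curves.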
SMILES,IC50 [1] [nM],IC50 (HeLa galactose cells) [nM]
"Cc1nsc(NC(=O)N2CCC(Cc3c(F)cc(C(F)(F)F)cc3F)CC2)n1 [Example 40, 4-[[2,6-difluoro-4-(trifluoromethyl)phenyl]methyl]-N-(3-methyl-1,2,4-thiadiazol-5-yl)piperidine-1-carboxamide]",48,32
"Cc1nsc(NC(=O)N2CCC(=Cc3c(F)cc(N(C)C)cc3F)CC2)n1 [Example 112, 4-[[4-(dimethylamino)-2,6-difluoro-phenyl]methylene]-N-(3-methyl-1,2,4-thiadiazol-5-yl)piperidine-1-carboxamide]",23,12
"COC1CN(Cc2ccc(Cl)cc2F)CCN(C(=O)Nc2nc(C)ns2)C1 (centres unmarked) [Example 160, 4-[(4-chloro-2-fluoro-phenyl)methyl]-6-methoxy-N-(3-methyl-1,2,4-thiadiazol-5-yl)-1,4-diazepane-1-carboxamide]",65,21
"Cc1nsc(NC(=O)N2CC/C(=C/c3ccc(Cl)cc3F)C(C)C2)n1 (centres unmarked) [Example 83, (4Z)-4-[(4-chloro-2-fluoro-phenyl)methylene]-3-methyl-N-(3-methyl-1,2,4-thiadiazol-5-yl)piperidine-1-carboxamide]",329,115
COCc1cc(NC(=O)N2CCC(=Cc3ccc(Cl)cc3F)CC2)ccn1 [Example 176],133,54
"Cc1cc(NC(=O)N2CCC(=Cc3c(F)cc(Cl)cc3F)CC2)ccn1 [Example 137, 4-[(4-chloro-2,6-difluoro-phenyl)methylene]-N-(2-methyl-4-pyridyl)piperidine-1-carboxamide]",42,17
"Cc1nsc(NC(=O)N2CC/C(=C\c3ccc(Cl)cc3F)C(C)(C)C2)n1 [Example 85, (4E)-4-[(4-chloro-2-fluoro-phenyl)methylene]-3,3-dimethyl-N-(3-methyl-1,2,4-thiadiazol-5-yl)piperidine-1-carboxamide]",83,38
Cc1ccc(CC2CCN(C(=O)Nc3nc(C)ns3)CC2)nc1 [Example 15],412,267
O=C(Nc1ccncc1)N1CCC(=Cc2ccc(Cl)cc2F)CC1 [Example 94],159,97
"Cc1nsc(NC(=O)N2CCC(Cc3c(F)cc(C#N)cc3F)CC2)n1 [Example 129, 4-[(4-cyano-2,6-difluoro-phenyl)methyl]-N-(3-methyl-1,2,4-thiadiazol-5-yl)piperidine-1-carboxamide]",20,16
COc1cc(F)c(CC2CCN(C(=O)Nc3nc(C)ns3)CC2)cn1 [Example 68],179,100
Cc1nsc(NC(=O)N2CCC(Cc3ccc(C)c(F)c3)CC2)n1 [Example 29],205,256
Cc1ccc(CC2CCN(C(=O)Nc3nc(C)ns3)CC2)cc1 [Example 5],100,36
"CCc1nsc(NC(=O)N2CCC(Cc3ccc(Cl)cc3F)CC2)n1 [Example 70, 4-[(4-chloro-2-fluoro-phenyl)methyl]-N-(3-ethyl-1,2,4-thiadiazol-5-yl)piperidine-1-carboxamide]",65,30
"Cc1nsc(NC(=O)N2CCC(Oc3ccc(Cl)cc3)CC2)n1 [Example 19, 4-(4-chlorophenoxy)-N-(3-methyl-1,2,4-thiadiazol-5-yl)piperidine-1-carboxamide]",488,266
Cc1nsc(NC(=O)N2CCC(Cc3c(F)cc(Cl)cc3Cl)CC2)n1 [Example 66],119,67
COc1cc(F)c(C=C2CCN(C(=O)Nc3nc(C)ns3)CC2)cn1 [Example 69],119,91
"Cc1nsc(NC(=O)N2CCC(Cc3c(F)cc(N(C)C)cc3F)CC2)n1 [Example 113, 4-[[4-(dimethylamino)-2,6-difluoro-phenyl]methyl]-N-(3-methyl-1,2,4-thiadiazol-5-yl)piperidine-1-carboxamide]",52,35
"Cc1nsc(NC(=O)N2CCC/C(=C/c3c(F)cc(N(C)C)cc3F)CC2)n1 [Example 115, (4Z)-4-[[4-(dimethylamino)-2,6-difluoro-phenyl]methylene]-N-(3-methyl-1,2,4-thiadiazol-5-yl)azepane-1-carboxamide]",79,29
COCc1ccc(CC2CCN(C(=O)Nc3nc(C)ns3)CC2)cc1 [Example 6],200,31

SMILES,IC50 [1] [nM],IC50 (HeLa galactose cells) [nM]
"Cc1nsc(NC(=O)N2CCCC(Cc3c(F)cc(Cl)cc3F)CC2)n1 (centres unmarked) [Example 127, 4-[(4-chloro-2,6-difluoro-phenyl)methyl]-N-(3-methyl-1,2,4-thiadiazol-5-yl)azepane-1-carboxamide]",35,15
Cc1nsc(NC(=O)N2CCC(=Cc3ccc(OC(F)(F)F)cc3)CC2)n1 [Example 52],477,271
"Cc1nsc(NC(=O)N2CCC(Cc3c(F)cc(Cl)cc3F)CC2)n1 [Example 25, 4-[(4-chloro-2,6-difluoro-phenyl)methyl]-N-(3-methyl-1,2,4-thiadiazol-5-yl)piperidine-1-carboxamide]",55,18
Cc1nsc(NC(=O)N2CCC(=Cc3c(F)cc(N(C)CC4CN(C)C4)cc3F)CC2)n1 [Example 161],159,50
Cc1cc(NC(=O)N2CCC(=Cc3c(F)cc(N(C)C)cc3F)CC2)ccn1 [Example 154],192,37
"Cc1nsc(NC(=O)N2CCC(=Cc3ccc(N(C)C)cc3F)CC2)n1 [Example 47, 4-[[4-(dimethylamino)-2-fluoro-phenyl]methylene]-N-(3-methyl-1,2,4-thiadiazol-5-yl)piperidine-1-carboxamide]",67,25
Cc1nsc(NC(=O)N2CCC(=Cc3ccc(Cl)cc3Cl)CC2)n1 [Example 21],208,207
Cc1nsc(NC(=O)N2CC/C(=C/c3ccc(Cl)cc3F)CC2C(C)C)n1 (centres unmarked) [Example 87],335,262
Cc1nsc(NC(=O)N2CCC(=Cc3ncc(Cl)cc3F)CC2)n1 [Example 67],233,125
"Cc1cc(NC(=O)N2CCC(=Cc3c(F)cc(C(F)(F)F)cc3F)CC2)ccn1 [Example 138, 4-[[2,6-difluoro-4-(trifluoromethyl)phenyl]methylene]-N-(2-methyl-4-pyridyl)piperidine-1-carboxamide]",147,21
Cc1nsc(NC(=O)N2CCC(Cc3ccc(OC(F)(F)F)cc3F)CC2)n1 [Example 55],383,202
Cc1nsc(NC(=O)N2CCC(Cc3cc(C)c(Cl)cc3F)CC2)n1 [Example 64],187,89
"Cc1cc(NC(=O)N2CCC(Cc3c(F)cc(N(C)C)cc3F)CC2)sn1 [Example 151, 4-[[4-(dimethylamino)-2,6-difluoro-phenyl]methyl]-N-(3-methylisothiazol-5-yl)piperidine-1-carboxamide]",42,20
"Cc1nsc(NC(=O)N2CCC(C(=O)c3ccc(Br)cc3F)CC2)n1 [Example 141, 4-(4-bromo-2-fluoro-benzoyl)-N-(3-methyl-1,2,4-thiadiazol-5-yl)-piperidine-1-carboxamide]",56,29
"COCCN(C)c1cc(F)c(C=C2CCN(C(=O)Nc3nc(C)ns3)CC2)c(F)c1 [Example 146, 4-[[2,6-difluoro-4-[2-methoxyethyl(methyl)amino]phenyl]methylene]-N-(3-methyl-1,2,4-thiadiazol-5-yl)piperidine-1-carboxamide]",20,13
"Cc1nsc(NC(=O)N2CCC(=Cc3c(F)cc(N(C)CC#N)cc3F)CC2)n1 [Example 164, 4-[[4-[cyanomethyl(methyl)amino]-2,6-difluoro-phenyl]methylene]-N-(3-methyl-1,2,4-thiadiazol-5-yl)piperidine-1-carboxamide]",16,19
"N#CCCc1nsc(NC(=O)N2CCC(=Cc3ccc(Cl)cc3F)CC2)n1 [Example 80, 4-[(4-chloro-2-fluoro-phenyl)methylene]-N-[3-(2-cyanoethyl)-1,2,4-thiadiazol-5-yl]piperidine-1-carboxamide]",108,134
Cc1cc(NC(=O)N2CCC(=Cc3ccc(Cl)cc3F)CC2)ccn1 [Example 128],168,33
Cc1nsc(NC(=O)N2CCC(Cc3ccc(C(F)(F)F)cc3F)CC2)n1 [Example 33],102,70
"Cc1nsc(NC(=O)N2CC/C(=C\c3ccc(Cl)cc3F)CC2C)n1 (centres unmarked) [Example 86, (4E)-4-[(4-chloro-2-fluoro-phenyl)methylene]-2-methyl-N-(3-methyl-1,2,4-thiadiazol-5-yl)piperidine-1-carboxamide]",61,21
